The results in this text go back to PubChem BioAssay AID2060504 (Molecular Pharmacology Branch, DTP, NCI, 2025).

The term viability, T/C denotes the result in the treated group divided by that in the control group, in per cent. By IC50 is commonly meant the concentration at which inhibition is half-maximal.

Each structure is given as a SMILES string. “And” between values parts separate entries of the source, which are not always exact repeats. Equal values may be shown once.

For this assay, the system named is 636577-100-R-J1-PDC complex spheroid viability. The experiment in a line: Anticancer human tumor 636577-100-R-J1-PDC patient-derived endometrial adenocarcinoma cell line growth inhibition [GQUAD]. Particulars: for viability, T/C: stronger effect = lower value; for IC50: curve of compound. From the text: DNA G-quadruplex Stabilizer Agents in Combinations in Complex Spheroids
A high-throughput screen of multi-cell type tumor spheroids was designed to identify active combinations of DNA G-quadruplex stabilizer agents and targeted small molecules. Complex spheroids include a stromal component modeled by human endothelial cells (HUVEC) and fibroblasts modeled by human mesenchymal stem cells (MSCs). The concentration ranges selected for each drug and investigational agent were based upon clinically achievable concentrations if the clinical Cmax of the agent was known.
Compounds. The drugs and investigational agents: pidnarulex (CX-5461; NSC782164), APTO-253 (NSC789042), BRACO-19 (NSC847499), peposertib (NSC802822), ceralasertib (NSC780249), elimusertib (NSC800525), camonsertib (NSC841442), AZD-1390 (NSC803789), olaparib (NSC753686), talazoparib (NSC767125), ART-558 (NSC835418), sotorasib (NSC818433), MRTX-1133 (NSC836407), SN-38 (NSC673596), topotecan (NSC609699), etoposide (NSC141540), doxorubicin (NSC123127), gemcitabine (NSC613327), 5-fluorouracil (NSC19893), paclitaxel (NSC125973), vemurafenib (NSC761431), panobinostat (NSC761190), R-306465 (JNJ-16241199; NSC773264), adavosertib (NSC754352), TP-3654 (NSC805149), carboplatin (NSC241240), KSQ-4279 (NSC840948), and staurosporine (NSC755774) were obtained from the National Cancer Institute (NCI) Developmental Therapeutics Program Chemical Repository (34). The FDA-approved anticancer drug set is available from the NCI Developmental Therapeutics Program. […] The stock solutions were prepared in dimethyl sulfoxide (DMSO, Sigma-Aldrich, St. Louis, MO, cat. D2650) at 800-fold the tested concentration and stored at -70 degrees C prior to their use. All drugs and investigational agents were tested over a range starting from a high concentration at or near the clinical Cmax and decreasing in half-log increments. If the clinical Cmax for an agent had not been determined, the highest concentration tested was 10 microM.
2.3 Cell Culture. All cells were maintained in an incubator at 37 degrees C and 5% CO2 with 95% humidity. The PDC lines were cultured according to standard operating procedures established by the NCI PDMR. All PDCs were thawed and cultured in Matrigel-coated flasks prepared with a working solution of 1X Ham's F-12 nutrient mix, without supplementation (Invitrogen, cat. 11765054), 100 U/mL penicillin-streptomycin (Invitrogen, cat. 15140122), and 2.5% Matrigel (Corning Inc., cat. 354248) for the first three passages. The 857933-349-R-J2-PDC line was cultured in 6C/Colon 1B media, which includes advanced DMEM/F-12 (Thermo Fisher Scientific, cat. 12634028), 10 mM HEPES (Thermo Fisher Scientific, cat. 15630080), 1X GlutaMAX supplement (Thermo Fisher Scientific, cat. 35050061), 0.1 mg/mL primocin (InvivoGen, cat. ant-pm-2), 10% defined fetal bovine serum, heat inactivated (HyClone Laboratories Inc., cat. SH30070.03HI), 50% L-WRN conditioned media (ATCC, cat. CRL-3276), 1.25 mM N-Acetyl-L-cysteine (Sigma-Aldrich, cat. A9165), 10 mM nicotinamide (Sigma-Aldrich, cat. N0636), 1X B-27 supplement (Thermo Fisher Scientific, cat. 17504044), 1X N-2 supplement (Thermo Fisher Scientific, cat. 17502048), 10 microM Y-27632 dihydrochloride (Tocris Bioscience, cat. 1254), and 50 ng/mL human EGF recombinant protein (Thermo Fisher Scientific, cat. PHG0311). The 485176-168-R4-J1-PDC line was cultured in Panc media, which includes all 6C/Colon 1B media components plus 100 ng/mL human FGF-10 (Thermo Fisher Scientific, cat. 100-26), 500 nM SB-431542 (Selleckchem, cat. S1067), and gastrin (Tocris, cat. 3006).
[…]
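Note: viability read after seven days of drug exposure.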
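Throughout, for viability, T/C: luminescence signal used as a proxy for viable cells; 100% = DMSO vehicle control wells.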

For `C#Cc1c(F)ccc2cc(O)cc(-c3ncc4c(N5CC6CCC(C5)N6)nc(OCC56CCCN5CC(F)C6)nc4c3F)c12` (stereo not given), the IC50 is > 10000 nM and 4970 nM and 5760 nM. The viability, T/C (compound 0.0316 µM) is 99.5% and 96.3% and 104%. Further, the viability, T/C (compound 0.1 µM) is 88.7% and 68.7% and 103%. For the same compound, the viability, T/C (compound 0.316 µM) was 77.1% and 102% and 113%. In addition, under “compound 1 µM”, the viability, T/C was 83% and 87.9% and 71.9%. Further, for the setting “compound 3.16 µM”, the viability, T/C is 66.9% and 56.5% and 70.4%. Also, under “compound 10 µM”, the viability, T/C is 49.2% and 39.9% and 35.7%.
For the compound `C=CC(=O)N1CCN(c2nc(=O)n(-c3c(C)ccnc3C(C)C)c3nc(-c4c(O)cccc4F)c(F)cc23)C(C)C1` (stereo not given), the IC50 is above 10000 nM. Moreover, the viability, T/C (compound 0.0316 µM) is 103% and 110%. Also, the viability, T/C (compound 0.1 µM) is 55.1% and 117%. Besides, the viability, T/C (compound 0.316 µM) is 105%. In addition, the viability, T/C (compound 1 µM) was 107% and 90.3%. Besides, where the note is “compound 3.16 µM”, the viability, T/C is 72.6% and 85.3%. Besides, the viability, T/C (compound 10 µM) is 70.6% and 66.2%.
As to `CC(=O)O[C@H]1C(=O)[C@@]2(C)[C@H]([C@H](OC(=O)c3ccccc3)[C@]3(O)C[C@H](OC(=O)[C@H](O)[C@@H](NC(=O)c4ccccc4)c4ccccc4)C(C)=C1C3(C)C)[C@]1(OC(C)=O)CO[C@@H]1C[C@@H]2O`, the IC50 is below 31.6 nM. For the same compound, for the setting “compound 0.0316 µM”, the viability, T/C is 17.6% and 17.3% and 20.3%. For the same compound, the viability, T/C (compound 0.1 µM) was 14% and 14.4% and 13.2%. For the setting “compound 0.316 µM”, the viability, T/C was 12.3% and 12.7% and 10.3%. For the same compound, for the setting “compound 1 µM”, the viability, T/C was 12.2% and 12% and 10%. Also, where the note is “compound 3.16 µM”, the viability, T/C was 9.72% and 10.1% and 7.81%. Also, the viability, T/C (compound 10 µM) was 9.54% and 9.71% and 8.27%.
With `CC(C)n1c(=O)n(C)c2cnc3cc(F)c(-c4ccc(OCCCN5CCCCC5)nc4)cc3c21`, the IC50 is > 10000 nM and 9660 nM. Moreover, for the setting “compound 0.0316 µM”, the viability, T/C is 72.8% and 108%. The viability, T/C (compound 0.1 µM) is 97.3% and 87.1%. For the same compound, under “compound 0.316 µM”, the viability, T/C is 90.1% and 107%. Besides, under “compound 1 µM”, the viability, T/C was 56.6% and 102%. Moreover, the viability, T/C (compound 3.16 µM) was 57.8% and 80.4%. For the same compound, the viability, T/C (compound 10 µM) was 53.7% and 49%.
Turning to `CC1COCCN1c1cc(-c2ccnn2C)c2ccnc(-c3ccn[nH]3)c2n1` (stereo not given), the IC50 was 113 nM and 71 nM and 109 nM. The viability, T/C (compound 0.0316 µM) was 85.1% and 78.3% and 94.5%. Further, the viability, T/C (compound 0.1 µM) is 52.2% and 35.1% and 51.9%. The viability, T/C (compound 0.316 µM) was 29.6% and 23.1% and 25.6%. Moreover, the viability, T/C (compound 1 µM) was 15.7% and 12.7% and 13%. In addition, the viability, T/C (compound 3.16 µM) was 5.78% and 5.92% and 5.17%. Moreover, the viability, T/C (compound 10 µM) was 3.61% and 3.66% and 3.51%.
Turning to `CC1COCCN1c1cc(C2(O)CC3CCC(C2)O3)c2cnn(-c3ccn[nH]3)c2n1` (stereo not given), the IC50 was < 31.6 nM and 54.1 nM and 36.7 nM. In addition, the viability, T/C (compound 0.0316 µM) was 45.5% and 69.8% and 52.9%. Under “compound 0.1 µM”, the viability, T/C is 36.3% and 25.4% and 31.3%. Where the note is “compound 0.316 µM”, the viability, T/C was 18.9% and 15.5% and 18%. Besides, the viability, T/C (compound 1 µM) is 8.03% and 6.74% and 6.72%. The viability, T/C (compound 3.16 µM) was 3.6% and 2.83% and 2.96%. Also, the viability, T/C (compound 10 µM) was 1.1% and 0.71% and 1.08%.
For `CC1COCCN1c1cc(C2(S(C)(=N)=O)CC2)nc(-c2ccnc3[nH]ccc23)n1` (stereo not given), the IC50 is 1040 nM and 2200 nM. Further, under “compound 0.0316 µM”, the viability, T/C is 90.3% and 97.2% and 58.2%. In addition, the viability, T/C (compound 0.1 µM) is 91.5% and 90.5% and 90.6%. Where the note is “compound 0.316 µM”, the viability, T/C was 93% and 90.3% and 73.6%. The viability, T/C (compound 1 µM) is 50.8% and 49.6% and 41.9%. Moreover, the viability, T/C (compound 3.16 µM) was 22.6% and 22.4% and 54.3%. The viability, T/C (compound 10 µM) was 14.2% and 12.7% and 14.7%.
In the case of `CCCS(=O)(=O)Nc1ccc(F)c(C(=O)c2c[nH]c3ncc(-c4ccc(Cl)cc4)cc23)c1F`, the IC50 is 8650 nM and 6140 nM and 1700 nM. In addition, the viability, T/C (compound 0.0316 µM) was 98.3% and 98.1% and 104%. Besides, under “compound 0.1 µM”, the viability, T/C was 89.9% and 103% and 86.1%. In addition, the viability, T/C (compound 0.316 µM) was 109% and 84.8% and 76.3%. Further, for the setting “compound 1 µM”, the viability, T/C is 75% and 74.6% and 46.8%. Moreover, the viability, T/C (compound 3.16 µM) is 71.8% and 76.7% and 53.5%. Further, for the setting “compound 10 µM”, the viability, T/C is 46.6% and 34.8% and 20.9%.
As to `CC[C@@]1(O)C(=O)OCc2c1cc1n(c2=O)Cc2cc3c(CN(C)C)c(O)ccc3nc2-1`, the IC50 stood at 24.3 nM. For the same compound, the viability, T/C (compound 0.000999 µM) is 85.3%. Under “compound 0.00316 µM”, the viability, T/C was 80.8%. Moreover, the viability, T/C (compound 0.00999 µM) was 82.9%. In addition, the viability, T/C (compound 0.0316 µM) is 40.3%. In addition, under “compound 0.0999 µM”, the viability, T/C was 19.1%. For the same compound, under “compound 0.316 µM”, the viability, T/C is 22%.
On to `CCc1c2c(nc3ccc(O)cc13)-c1cc3c(c(=O)n1C2)COC(=O)[C@]3(O)CC`, for which the IC50 is below 0.999 nM. For the same compound, for the setting “compound 0.000999 µM”, the viability, T/C was 46.6%. For the setting “compound 0.00316 µM”, the viability, T/C is 22.1%. Besides, the viability, T/C (compound 0.00999 µM) was 23.3%. Under “compound 0.0316 µM”, the viability, T/C was 22.9%. For the same compound, the viability, T/C (compound 0.0999 µM) is 19.6%. In addition, the viability, T/C (compound 0.316 µM) was 10.7%.
